System: G-401 tumor spheroids, viability % test/control
Experiment: Anticancer human tumor G-401 cell line growth inhibition;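 also: spheroids exposed to compound for 7 days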;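 as to viability, T/C: 100% = DMSO vehicle-treated spheroids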
Settings: spheroids with HUVEC and MSC; for IC50: curve of first compound; for viability, T/C: stronger effect = lower value
Source text: Multicellular complex tumor spheroid response to DNA repair inhibitors in combination with DNA-damaging drugs
This study explores the anticancer activities of DNA-damaging drugs and inhibitors of DNA damage repair, both as single agents and in combinations. Complex tumor spheroids comprised of malignant cells, endothelial cells and mesenchymal stem cells served as an in vitro model for human solid tumors. This model system incorporates physiologically relevant features and patient-derived or established malignant cell lines with clinically relevant genetic alterations from many tumor types. Twenty-six patient-derived or established malignant cell lines were evaluated representing sarcoma, melanoma, small cell lung cancer (SCLC), non-small cell lung cancer (NSCLC), as well as bladder, ovarian and pancreatic cancers. The concentration ranges selected for each drug and investigational agent were based upon clinically achievable concentrations if the clinical Cmax of the agent was known.
Compounds. The drugs and compounds olaparib (NSC753686), talazoparib (NSC767125), berzosertib (NSC777718), elimusertib (NSC800525), nedisertib (NSC802822), VX-984 (NSC792969), AZD-1390 (NSC803789), temozolomide (NSC362856), topotecan (NSC609699), trabectedin (NSC813783), staurosporine (NSC755774), and gemcitabine (NSC613327) were obtained from the National Cancer Institute (NCI) Developmental Therapeutics Program Chemical Repository. The FDA-approved anticancer drug set is available from the Developmental Therapeutics Program at https://dtp.cancer.gov/organization/dscb/obtaining/available_plates.htm. […] The stock solutions were prepared in dimethyl sulfoxide (DMSO, Sigma-Aldrich, St. Louis, MO, cat. D2650) at 400-fold the tested concentration and stored at -70 degrees C. Prior to their use, the stock solutions were diluted in fresh medium and the final DMSO concentration in the assay was 0.25% (v/v). All drugs and investigational agents were tested over a range starting from a high concentration at or near the clinical Cmax and decreasing in half-log increments. If the clinical Cmax for an agent had not been determined, the highest concentration tested was 10 microM.
Cell Lines. The patient-derived cancer cell (PDC) lines: 156681-154-R-J1-PDC, 283228-195-R-J1-PDC, 287954-098-R-J1-PDC, 292921-168-R-J2-PDC, 349418-098-R-PDC, 425362-245-T-J1-PDC, 556581-035-R-J1-PDC, and BL0293-F563-PDC were received from the NCI Patient-Derived Models Repository (PDMR, https://pdmr.cancer.gov). The established cell lines HS-SY-2 (RRID:CVCL_8719), MPNST, and SYO-1 (RRID:CVCL_7146) were obtained from the Sloan Kettering Institute. The alveolar soft parts sarcoma cell line ASPS-1 (RRID:CVCL_S738) was established at the NCI and grown from internal seed stocks. The following established cell lines were purchased from the American Type Culture Collection (ATCC, Manassas, VA): G-401 (ATCC, cat. CRL-1441, RRID:CVCL_0270), SW982 (ATCC, cat. HTB-93, RRID:CVCL_1734), VA-ES-BJ (ATCC, cat. CRL-2138, RRID:CVCL_1785), NCI-H719 (ATCC, cat. CRL-5837, RRID:CVCL_1582), NCI-H196 (ATCC, cat. CRL-5823, RRID:CVCL_1509), NCI-H841 (ATCC, cat. CRL-5845, RRID:CVCL_1595), NCI-H1618 (ATCC, cat. CRL-5879, RRID:CVCL_1480), NCI-H1876 (ATCC, cat. CRL-5902, RRID:CVCL_1503), DMS 114 (ATCC, cat. CRL-2066; RRID:CVCL_1174), NCI-H211 (ATCC, cat. CRL-5824; RRID:CVCL_1529), and SW 1271 (ATCC, cat. CRL-2177, RRID:CVCL_1716). The small cell lung cancer cell line COR-L88 was purchased from Sigma-Aldrich (cat. 92031917-1VL, RRID:CVCL_1141). The non-small cell lung cancer cell lines NCI-H226 (RRID:CVCL_1544) and NCI-H322M (RRID:CVCL_1557) were established at the NCI and grown from internal seed stocks. Pooled donor human umbilical vein endothelial cells (HUVEC, Lonza, cat. CC-2519) and human mesenchymal stem cells (hMSC, Lonza, cat. PT-2501) were purchased from Lonza (Walkersville, MD).
Cell Culture. All cells were maintained in an incubator at 37 degrees C and 5% CO2 with 95% humidity. […]

SMILES: Cc1sc2c(c1C)C(c1ccc(Cl)cc1)=NC(CC(=O)Nc1ccc(O)cc1)c1nnc(C)n1-2 (stereo not given) + CC[C@@]1(O)C(=O)OCc2c1cc1n(c2=O)Cc2cc3c(CN(C)C)c(O)ccc3nc2-1
- IC50 (second compound 0.003 µM): 46.5 nM
- IC50 (second compound 0.00949 µM): < 9.49 nM
- IC50 (second compound 0.03 µM): < 9.49 nM
- IC50 (second compound 0.0949 µM): < 9.49 nM
- IC50 (second compound 0.3 µM): < 9.49 nM
- viability, T/C (second compound 0.003 µM, first compound 0.00949 µM): 72%
- viability, T/C (second compound 0.003 µM, first compound 0.03 µM): 57.4%
- viability, T/C (second compound 0.003 µM, first compound 0.0949 µM): 38.5%
- viability, T/C (second compound 0.003 µM, first compound 0.3 µM): 25.3%
- viability, T/C (second compound 0.003 µM, first compound 0.949 µM): 15.4%
- viability, T/C (second compound 0.003 µM, first compound 3 µM): 6.8%
- viability, T/C (second compound 0.00949 µM, first compound 0.00949 µM): 38.3%
- viability, T/C (second compound 0.00949 µM, first compound 0.03 µM): 40.3%
- viability, T/C (second compound 0.00949 µM, first compound 0.0949 µM): 22.1%
- viability, T/C (second compound 0.00949 µM, first compound 0.3 µM): 17%
- viability, T/C (second compound 0.00949 µM, first compound 0.949 µM): 6.36%
- viability, T/C (second compound 0.00949 µM, first compound 3 µM): 3.51%
- viability, T/C (second compound 0.03 µM, first compound 0.00949 µM): 13.9%
- viability, T/C (second compound 0.03 µM, first compound 0.03 µM): 11.6%
- viability, T/C (second compound 0.03 µM, first compound 0.0949 µM): 9.1%
- viability, T/C (second compound 0.03 µM, first compound 0.3 µM): 6.33%
- viability, T/C (second compound 0.03 µM, first compound 0.949 µM): 3.18%
- viability, T/C (second compound 0.03 µM, first compound 3 µM): 1.34%
- viability, T/C (second compound 0.0949 µM, first compound 0.00949 µM): 7.96%
- viability, T/C (second compound 0.0949 µM, first compound 0.03 µM): 5.07%
- viability, T/C (second compound 0.0949 µM, first compound 0.0949 µM): 4.63%
- viability, T/C (second compound 0.0949 µM, first compound 0.3 µM): 2.93%
- viability, T/C (second compound 0.0949 µM, first compound 0.949 µM): 1.21%
- viability, T/C (second compound 0.0949 µM, first compound 3 µM): 0.82%
- viability, T/C (second compound 0.3 µM, first compound 0.00949 µM): 4.4%
- viability, T/C (second compound 0.3 µM, first compound 0.03 µM): 3.79%
- viability, T/C (second compound 0.3 µM, first compound 0.0949 µM): 3.23%
- viability, T/C (second compound 0.3 µM, first compound 0.3 µM): 1.9%
- viability, T/C (second compound 0.3 µM, first compound 0.949 µM): 1.03%
- viability, T/C (second compound 0.3 µM, first compound 3 µM): 0.5%

From PubChem BioAssay AID1845203 (Molecular Pharmacology Branch, DTP, NCI, 2023)
